# Test system: MV-4-11 cells
# Assay: Gene expression microarray analysis (Affymetrix PrimeView) and GSEA
# Type: cell-based, human
# Set-up: RFU PODN (11730768_x_at) / Fold change /veh PODN (11730768_x_at) / RFU LINC00158 (11744669_a_at) / Fold change /veh LINC00158 (11744669_a_at) / RFU DUSP10 (11751237_a_at) / Fold change /veh DUSP10 (11751237_a_at) / RFU ID3 (11757404_x_at) / Fold change /veh ID3 (11757404_x_at) / RFU PLEKHG5 (11737974_s_at) / Fold change /veh PLEKHG5 (11737974_s_at) / RFU LRRC4B (11730491_at) / Fold change /veh LRRC4B (11730491_at) / RFU GIMAP4 (11747438_a_at) / Fold change /veh GIMAP4 (11747438_a_at) / RFU KRT8 (11758183_x_at) / Fold change /veh KRT8 (11758183_x_at) / RFU CNN1 (11734310_a_at) / Fold change /veh CNN1 (11734310_a_at) / RFU VPS37D (11726825_at) / Fold change /veh VPS37D (11726825_at) / RFU C10orf10 (11716522_x_at) / Fold change /veh C10orf10 (11716522_x_at) / RFU KIR2DL2 /// KIR2DL4 /// KIR2DL5A /// KIR2DL5B /// KIR2DS1 /// KIR2DS2 /// KIR2DS3 /// KIR2DS4 /// KIR3DL3 /// KIR3DL3 /// KIR3DS1 (11738374_at) / Fold change /veh KIR2DL2 /// KIR2DL4 /// KIR2DL5A /// KIR2DL5B /// KIR2DS1 /// KIR2DS2 /// KIR2DS3 /// KIR2DS4 /// KIR3DL3 /// KIR3DL3 /// KIR3DS1 (11738374_at) / RFU C1QL1 (11718748_at) / Fold change /veh C1QL1 (11718748_at) / RFU TMPRSS4 (11747572_a_at) / Fold change /veh TMPRSS4 (11747572_a_at) / RFU HAMP (11756126_x_at) / Fold change /veh HAMP (11756126_x_at) / RFU RNFT2 (11725882_a_at) / Fold change /veh RNFT2 (11725882_a_at) / RFU NR4A2 (11747474_a_at) / Fold change /veh NR4A2 (11747474_a_at) / RFU ABCC12 (11746883_a_at) / Fold change /veh ABCC12 (11746883_a_at) / RFU TMEM136 (11760407_x_at) / Fold change /veh TMEM136 (11760407_x_at) / RFU CLDN22 /// WWC2 (11732394_at) / Fold change /veh CLDN22 /// WWC2 (11732394_at) / RFU HLA-DPB1 (11760878_x_at) / Fold change /veh HLA-DPB1 (11760878_x_at) / RFU SPINT1 (11716480_a_at) / Fold change /veh SPINT1 (11716480_a_at) / RFU GAP43 (11754022_s_at) / Fold change /veh GAP43 (11754022_s_at) / RFU A4GNT (11735810_at) / Fold change /veh A4GNT (11735810_at) / RFU PRB3 (11715151_x_at) / Fold change /veh PRB3 (11715151_x_at) / RFU TUBB4B (11761932_at) / Fold change /veh TUBB4B (11761932_at) / RFU CAPN14 (11732068_a_at) / Fold change /veh CAPN14 (11732068_a_at) / RFU TMCC2 (11721928_a_at) / Fold change /veh TMCC2 (11721928_a_at) / RFU IRGQ (11745062_a_at) / Fold change /veh IRGQ (11745062_a_at) / RFU FAM174B (11720279_a_at) / Fold change /veh FAM174B (11720279_a_at) / RFU TMPRSS4 (11748680_a_at) / Fold change /veh TMPRSS4 (11748680_a_at) / RFU FAM212B (11763350_a_at) / Fold change /veh FAM212B (11763350_a_at) / RFU PLEKHG5 (11743358_a_at) / Fold change /veh PLEKHG5 (11743358_a_at) / RFU ZSCAN30 (11745921_a_at) / Fold change /veh ZSCAN30 (11745921_a_at) / RFU CMKLR1 (11741424_a_at) / Fold change /veh CMKLR1 (11741424_a_at) / RFU LOC101060620 /// MAPK8IP1 (11723275_at) / Fold change /veh LOC101060620 /// MAPK8IP1 (11723275_at) / RFU SPTSSB (11747773_x_at) / Fold change /veh SPTSSB (11747773_x_at) / RFU PRSS12 (11739890_at) / Fold change /veh PRSS12 (11739890_at) / RFU BIN1 (11741810_x_at) / Fold change /veh BIN1 (11741810_x_at) / RFU WNT11 (11732464_a_at) / Fold change /veh WNT11 (11732464_a_at) / RFU C10orf10 (11716521_a_at) / Fold change /veh C10orf10 (11716521_a_at) / RFU C5orf56 (11738089_at) / Fold change /veh C5orf56 (11738089_at) / RFU CYB561 (11721691_x_at) / Fold change /veh CYB561 (11721691_x_at) / RFU ANKRD19P (11752326_a_at) / Fold change /veh ANKRD19P (11752326_a_at) / RFU OR2T12 /// OR2T33 /// OR2T8 (11738714_s_at) / Fold change /veh OR2T12 /// OR2T33 /// OR2T8 (11738714_s_at) / RFU VCAN (11748164_a_at) / Fold change /veh VCAN (11748164_a_at) / RFU JSRP1 (11732532_at) / Fold change /veh JSRP1 (11732532_at) / RFU KRTAP10-11 (11738290_x_at) / Fold change /veh KRTAP10-11 (11738290_x_at) / RFU MYO3A (11730013_a_at) / Fold change /veh MYO3A (11730013_a_at) / RFU EBF3 (11725865_a_at) / Fold change /veh EBF3 (11725865_a_at) / RFU CAMK2N1 (11719241_x_at) / Fold change /veh CAMK2N1 (11719241_x_at) / RFU C5orf56 (11738088_a_at) / Fold change /veh C5orf56 (11738088_a_at) / RFU OLFML3 (11715873_a_at) / Fold change /veh OLFML3 (11715873_a_at) / RFU LOC100653217 /// NTM (11731650_a_at) / Fold change /veh LOC100653217 /// NTM (11731650_a_at) / RFU MAPK11 (11762145_a_at) / Fold change /veh MAPK11 (11762145_a_at) / RFU FIZ1 (11724087_x_at) / Fold change /veh FIZ1 (11724087_x_at) / RFU OASL (11726364_x_at) / Fold change /veh OASL (11726364_x_at) / RFU SOX15 (11748057_x_at) / Fold change /veh SOX15 (11748057_x_at) / RFU CD79A (11719716_a_at) / Fold change /veh CD79A (11719716_a_at) / RFU HIST1H1D (11736915_at) / Fold change /veh HIST1H1D (11736915_at) / RFU CASKIN2 (11723855_a_at) / Fold change /veh CASKIN2 (11723855_a_at) / RFU LOC730098 (11760151_x_at) / Fold change /veh LOC730098 (11760151_x_at) / RFU OR4N2 (11742367_at) / Fold change /veh OR4N2 (11742367_at) / RFU PRRT2 (11749266_a_at) / Fold change /veh PRRT2 (11749266_a_at) / RFU SNX32 (11753110_a_at) / Fold change /veh SNX32 (11753110_a_at) / RFU CDHR5 (11726645_a_at) / Fold change /veh CDHR5 (11726645_a_at) / RFU RCAN1 (11760418_a_at) / Fold change /veh RCAN1 (11760418_a_at) / RFU FAM167A (11723789_a_at) / Fold change /veh FAM167A (11723789_a_at) / RFU FAM26E (11764081_at) / Fold change /veh FAM26E (11764081_at) / RFU ISYNA1 (11749810_s_at) / Fold change /veh ISYNA1 (11749810_s_at) / RFU ACY1 (11761880_at) / Fold change /veh ACY1 (11761880_at) / RFU 11764098_at / Fold change /veh 11764098_at / RFU SAMD14 (11745864_x_at) / Fold change /veh SAMD14 (11745864_x_at) / RFU NPB (11741838_a_at) / Fold change /veh NPB (11741838_a_at) / RFU TMPRSS6 (11731388_a_at) / Fold change /veh TMPRSS6 (11731388_a_at) / RFU KRTAP10-2 (11738614_at) / Fold change /veh KRTAP10-2 (11738614_at) / RFU ARHGAP8 /// PRR5-ARHGAP8 (11727945_x_at) / Fold change /veh ARHGAP8 /// PRR5-ARHGAP8 (11727945_x_at) / RFU KRTAP5-7 /// NADSYN1 (11734609_at) / Fold change /veh KRTAP5-7 /// NADSYN1 (11734609_at) / RFU RASL12 (11751679_a_at) / Fold change /veh RASL12 (11751679_a_at) / RFU CDKN2B (11736163_a_at) / Fold change /veh CDKN2B (11736163_a_at) / RFU PRF1 (11729649_at) / Fold change /veh PRF1 (11729649_at) / RFU, ZNF638 /// ZNF638-IT1 / Fold change vs veh, ZNF638 /// ZNF638-IT1 / RFU, PANK3 / Fold change vs veh, PANK3 / RFU, SH3YL1 / Fold change vs veh, SH3YL1 / RFU, ZEB2 / Fold change vs veh, ZEB2 / RFU, NRIP1 / Fold change vs veh, NRIP1 / RFU, PTTG1IP / Fold change vs veh, PTTG1IP / RFU, CAPN2 / Fold change vs veh, CAPN2 / RFU, MED14 / Fold change vs veh, MED14 / RFU, SNORA58 / Fold change vs veh, SNORA58 / RFU, C1orf63 / Fold change vs veh, C1orf63 / RFU, LRRFIP1 / Fold change vs veh, LRRFIP1 / RFU, NDUFAF7 / Fold change vs veh, NDUFAF7 / RFU, SLC12A2 / Fold change vs veh, SLC12A2 / RFU, IBTK / Fold change vs veh, IBTK / RFU, ESF1 / Fold change vs veh, ESF1 / Fold change vs veh, TMEM50B / RFU, TAOK1 / Fold change vs veh, TAOK1 / RFU, ACBD3 / Fold change vs veh, ACBD3 / RFU, TMA16 / Fold change vs veh, TMA16 / RFU, RWDD3 / Fold change vs veh, RWDD3 / RFU, BCAT1 / Fold change vs veh, BCAT1 / RFU, EDEM3 / Fold change vs veh, EDEM3 / RFU, TMEM33 / Fold change vs veh, TMEM33 / RFU, WDR75 / Fold change vs veh, WDR75 / RFU, AHCTF1 / Fold change vs veh, AHCTF1 / RFU, TFRC / Fold change vs veh, TFRC / RFU, ZDHHC17 / Fold change vs veh, ZDHHC17 / RFU, NOM1 / Fold change vs veh, NOM1 / RFU, ARL8B / Fold change vs veh, ARL8B / RFU, ZBTB11 / Fold change vs veh, ZBTB11 / RFU, TAMM41 / Fold change vs veh, TAMM41 / RFU, KIAA1704 /// LOC100996395 / Fold change vs veh, KIAA1704 /// LOC100996395 / RFU, ING1 / Fold change vs veh, ING1 / RFU, TRMT61B / Fold change vs veh, TRMT61B / RFU, FUBP3 / Fold change vs veh, FUBP3 / RFU, TP53 / Fold change vs veh, TP53 / RFU, TNKS2 / Fold change vs veh, TNKS2 / RFU, ZFP14 / Fold change vs veh, ZFP14 / RFU, ACTR2 / Fold change vs veh, ACTR2 / RFU, PPP3R1 / Fold change vs veh, PPP3R1 / RFU, PIK3R1 / Fold change vs veh, PIK3R1 / RFU, HNRNPA1 / Fold change vs veh, HNRNPA1 / RFU, RNF170 / Fold change vs veh, RNF170 / RFU, ZNF28 / Fold change vs veh, ZNF28 / RFU, RNGTT / Fold change vs veh, RNGTT / RFU, OGT / Fold change vs veh, OGT / RFU, BRD1 / Fold change vs veh, BRD1 / RFU, MARS / Fold change vs veh, MARS / RFU, ZNF655 / Fold change vs veh, ZNF655 / RFU, FAHD1 / Fold change vs veh, FAHD1 / RFU, BDP1 / Fold change vs veh, BDP1 / RFU, LRRCC1 / Fold change vs veh, LRRCC1 / RFU, ARID1A / Fold change vs veh, ARID1A / RFU, ZNF146 / Fold change vs veh, ZNF146 / RFU, ZNF330 / Fold change vs veh, ZNF330 / RFU, GPN3 / Fold change vs veh, GPN3 / RFU, C9orf123 / Fold change vs veh, C9orf123 / RFU, N4BP2L2 / Fold change vs veh, N4BP2L2 / RFU, ARFIP1 / Fold change vs veh, ARFIP1 / RFU, FAM179B / Fold change vs veh, FAM179B / RFU, BCL10 / Fold change vs veh, BCL10 / RFU, UHRF1BP1L / Fold change vs veh, UHRF1BP1L / RFU, BET1 / Fold change vs veh, BET1 / RFU, CNOT2 / Fold change vs veh, CNOT2 / RFU, ZNF268 / Fold change vs veh, ZNF268 / Fold change vs veh, ZNF507 / RFU, DGCR2 / Fold change vs veh, DGCR2 / RFU, WDSUB1 / Fold change vs veh, WDSUB1 / Fold change vs veh, HSP90B1 /// MIR3652 / RFU, ADSS / Fold change vs veh, ADSS / RFU, GK / Fold change vs veh, GK / RFU, ZNF148 / Fold change vs veh, ZNF148 / RFU, TAF9 / Fold change vs veh, TAF9 / RFU, SLC1A5 / Fold change vs veh, SLC1A5 / RFU, SLMO2 / Fold change vs veh, SLMO2 / RFU, ABCC4 / Fold change vs veh, ABCC4 / RFU, LOC101060439 /// RAP1B / Fold change vs veh, LOC101060439 /// RAP1B / RFU, RFX7 / Fold change vs veh, RFX7 / RFU, GTPBP10 / Fold change vs veh, GTPBP10 / RFU, CNEP1R1 / Fold change vs veh, CNEP1R1 / RFU, BIVM-ERCC5 /// ERCC5 / Fold change vs veh, BIVM-ERCC5 /// ERCC5 / RFU, ILF3 / Fold change vs veh, ILF3 / RFU 11762660_at / Fold change /veh 11762660_at / RFU VCAN (11757783_s_at) / Fold change /veh VCAN (11757783_s_at) / RFU DDX43 (11728927_at) / Fold change /veh DDX43 (11728927_at) / RFU KRT8 (11758188_x_at) / Fold change /veh KRT8 (11758188_x_at) / RFU NKD1 (11759106_at) / Fold change /veh NKD1 (11759106_at) / RFU SRD5A1 (11742802_a_at) / Fold change /veh SRD5A1 (11742802_a_at) / RFU TPSAB1 /// TPSB2 (11721975_s_at) / Fold change /veh TPSAB1 /// TPSB2 (11721975_s_at) / RFU GSTM3 (11746129_a_at) / Fold change /veh GSTM3 (11746129_a_at) / RFU IL23R (11737362_x_at) / Fold change /veh IL23R (11737362_x_at) / RFU TMEM51 (11727254_a_at) / Fold change /veh TMEM51 (11727254_a_at) / RFU PIWIL2 (11732686_x_at) / Fold change /veh PIWIL2 (11732686_x_at) / RFU ORM1 (11744905_x_at) / Fold change /veh ORM1 (11744905_x_at) / RFU CCDC152 (11743942_at) / Fold change /veh CCDC152 (11743942_at) / RFU ECM1 (11717891_a_at) / Fold change /veh ECM1 (11717891_a_at) / RFU IL23R (11748794_a_at) / Fold change /veh IL23R (11748794_a_at) / RFU TNFAIP8L3 (11732012_x_at) / Fold change /veh TNFAIP8L3 (11732012_x_at) / RFU MBOAT4 (11741988_at) / Fold change /veh MBOAT4 (11741988_at) / RFU 11764193_at / Fold change /veh 11764193_at / RFU TMEM53 (11763286_at) / Fold change /veh TMEM53 (11763286_at) / RFU MAGEB2 (11727129_at) / Fold change /veh MAGEB2 (11727129_at) / RFU TMEM200A (11744735_a_at) / Fold change /veh TMEM200A (11744735_a_at) / RFU CCDC152 (11751479_a_at) / Fold change /veh CCDC152 (11751479_a_at) / RFU FAM211A (11726209_a_at) / Fold change /veh FAM211A (11726209_a_at) / RFU RGS16 (11746705_a_at) / Fold change /veh RGS16 (11746705_a_at) / RFU VCAN (11755009_s_at) / Fold change /veh VCAN (11755009_s_at) / RFU RHOB (11743442_s_at) / Fold change /veh RHOB (11743442_s_at) / RFU RGS16 (11720943_a_at) / Fold change /veh RGS16 (11720943_a_at) / RFU RGS16 (11720944_at) / Fold change /veh RGS16 (11720944_at) / RFU, VPS4B / Fold change vs veh, VPS4B / RFU, CREB1 / Fold change vs veh, CREB1 / RFU, DNAJC13 / Fold change vs veh, DNAJC13 / RFU, GNAQ / Fold change vs veh, GNAQ / RFU, CDK5R1 / Fold change vs veh, CDK5R1 / RFU, ZRANB3 / Fold change vs veh, ZRANB3 / RFU, CUL4A / Fold change vs veh, CUL4A / RFU, CCNY / Fold change vs veh, CCNY / RFU, UFL1 / Fold change vs veh, UFL1 / RFU, COG3 / Fold change vs veh, COG3 / RFU, DIAPH2 / Fold change vs veh, DIAPH2 / RFU, SKA2 / Fold change vs veh, SKA2 / RFU, AFF3 / Fold change vs veh, AFF3 / RFU, LMF1 / Fold change vs veh, LMF1 / RFU, IPO11 / Fold change vs veh, IPO11 / RFU, DFFB / Fold change vs veh, DFFB / RFU, FOXP1 / Fold change vs veh, FOXP1 / RFU, CARD8 / Fold change vs veh, CARD8 / RFU, STRN3 / Fold change vs veh, STRN3 / RFU, ADK / Fold change vs veh, ADK / RFU, RASSF2 / Fold change vs veh, RASSF2 / RFU, WIPF1 / Fold change vs veh, WIPF1 / RFU, LARP1B / Fold change vs veh, LARP1B / RFU, RASA1 / Fold change vs veh, RASA1 / RFU, RB1 / Fold change vs veh, RB1 / RFU, PPFIA1 / Fold change vs veh, PPFIA1 / RFU, MAT2A / Fold change vs veh, MAT2A / RFU, CCT5 / Fold change vs veh, CCT5 / RFU, WDR92 / Fold change vs veh, WDR92 / RFU, CUX1 / Fold change vs veh, CUX1 / RFU, TTC7A / Fold change vs veh, TTC7A / RFU, TMEM135 / Fold change vs veh, TMEM135 / RFU, DEPTOR / Fold change vs veh, DEPTOR / RFU, CPM / Fold change vs veh, CPM / RFU, DNAJB6 / Fold change vs veh, DNAJB6 / RFU, CACNA2D3 / Fold change vs veh, CACNA2D3 / RFU, DTX4 / Fold change vs veh, DTX4 / RFU, TFCP2 / Fold change vs veh, TFCP2 / RFU, GMCL1 /// GMCL1P1 / Fold change vs veh, GMCL1 /// GMCL1P1 / RFU, AEBP2 / Fold change vs veh, AEBP2 / RFU, SNHG1 /// SNORD22 /// SNORD25 /// SNORD26 /// SNORD27 /// SNORD28 /// SNORD29 /// SNORD31 / Fold change vs veh, SNHG1 /// SNORD22 /// SNORD25 /// SNORD26 /// SNORD27 /// SNORD28 /// SNORD29 /// SNORD31 / Fold change (Aza/veh), C12orf56 (ProbeSet 11735607_a_at) / Fold change (ACY-1035/veh), C12orf56 (ProbeSet 11735607_a_at) / Fold change (Aza/veh), FGFR1OP (ProbeSet 11751329_s_at) / Fold change (ACY-1035/veh), FGFR1OP (ProbeSet 11751329_s_at) / Fold change (Aza/veh), VPS36 (ProbeSet 11739960_a_at) / Fold change (ACY-1035/veh), VPS36 (ProbeSet 11739960_a_at) / RFU SYPL1 (11715823_x_at) / Fold change /veh SYPL1 (11715823_x_at) / RFU IGFBP7 (11715501_s_at) / Fold change /veh IGFBP7 (11715501_s_at) / RFU REEP3 (11722064_at) / Fold change /veh REEP3 (11722064_at) / RFU IGLL1 (11728026_x_at) / Fold change /veh IGLL1 (11728026_x_at): dose or concentration left out as unconfirmed
# Settings: ProbeSet 11730252_s_at; LIST B
structure (smiles),measurement,value
Nc1ccc(-c2cccs2)cc1NC(=O)c1ccc2c(c1)cc(C1CC1)n2CCN1CCOCC1 [ACY-1035],"Fold change vs veh, AHCTF1",0.96

# From PMC5218480 (PLoS ONE, 2017)
